Tests used:
ragweed = test: Test A pre-/postemergence herbicide test; format: in vivo, Ambrosia elatior; conditions: for Plant response rating, Ragweed: 0 to 100 scale
How it was run: (§1)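 Both application timings used compounds in a non-phytotoxic solvent plus surfactant. Pre-emergence: soil sprayed directly after seeding into loam/sand. Post-emergence: foliage of 2–10 cm seedlings (1–2 leaves) sprayed. Injury rated ~10 days later, 0–100.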

giant foxtail = test: Test A pre-/postemergence herbicide test; format: in vivo, Setaria faberii; conditions: for Plant response rating, Foxtail, Giant: 0 to 100 scale
How it was run: as §1

wheat = test: Test A pre-/postemergence herbicide test; format: in vivo, Triticum aestivum; conditions: Postemergence; for Plant response rating, Wheat: 125 g ai/ha, 0 to 100 scale, 0 no effect, 100 complete control; for Wheat plant response rating (0 to 100 scale, 0 is no effect, 100 is complete control): 500 g ai/ha
How it was run: as §1

sedge, umbrella = test: Test B flooded paddy test; format: in vivo, Cyperus difformis; conditions: 500 g ai/ha, Flood; scale of 0 to 100 where 0 is no effect and 100 is complete control
How it was run: (§2)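 Scored visually 0–100 (0 no effect, 100 complete control) versus controls after 13 to 15 greenhouse days. Treatment: compound added to paddy water kept 3 cm above soil, on 2-leaf-stage plants.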

kochia = test: Test A pre-/postemergence herbicide test; format: in vivo, Kochia scoparia; conditions: for Plant response rating, Kochia: 0 to 100 scale
How it was run: as §1

blackgrass = test: Test A postemergence herbicide test; format: in vivo, Alopecurus myosuroides; conditions: for Plant response rating, Blackgrass: 125 g ai/ha, 0 to 100 scale, 0 no effect, 100 complete control; for Blackgrass plant response rating (0 to 100 scale, 0 is no effect, 100 is complete control): 500 g ai/ha
How it was run: (§3)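 Blackgrass and galium grown in pots of loam soil–sand blend, treated postemergence at 2–10 cm height, one- to two-leaf stage. Plants kept in greenhouse ~10 days, then visually rated for injury against untreated controls on a 0–100 scale (0 no effect, 100 complete control).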

corn = test: Test A pre-/postemergence herbicide test; format: in vivo, Zea mays; conditions: Postemergence; for Plant response rating, Corn: 125 g ai/ha, 0 to 100 scale, 0 no effect, 100 complete control; for Corn plant response rating (0 to 100 scale, 0 is no effect, 100 is complete control): 500 g ai/ha
How it was run: as §1

galium = test: Test A postemergence herbicide test; format: in vivo, Galium aparine; conditions: for Plant response rating, Galium: 125 g ai/ha, 0 to 100 scale, 0 no effect, 100 complete control; for Galium plant response rating (0 to 100 scale, 0 is no effect, 100 is complete control): 500 g ai/ha
How it was run: as §3

barnyardgrass [1] = test: Test B flooded paddy test; format: in vivo, Echinochloa crus-galli; conditions: 500 g ai/ha, Flood; scale of 0 to 100 where 0 is no effect and 100 is complete control
How it was run: as §2

ryegrass, Italian = test: Test A pre-/postemergence herbicide test; format: in vivo, Lolium multiflorum; conditions: for Plant response rating, Ryegrass, Italian: 0 to 100 scale
How it was run: as §1

barnyardgrass [2] = test: Test A pre-/postemergence herbicide test; format: in vivo, Echinochloa crus-galli
How it was run: as §1

ducksalad = test: Test B flooded paddy test; format: in vivo, Heteranthera limosa; conditions: 500 g ai/ha, Flood; scale of 0 to 100 where 0 is no effect and 100 is complete control
How it was run: as §2

rice = test: Test B flooded paddy test; format: in vivo, Oryza sativa; conditions: 500 g ai/ha, Flood; scale of 0 to 100 where 0 is no effect and 100 is complete control
How it was run: as §2

pigweed = test: Test A pre-/postemergence herbicide test; format: in vivo, Amaranthus retroflexus; conditions: for Plant response rating, Pigweed: 0 to 100 scale
How it was run: as §1

[3] = 125 g ai/ha, visual rating, 0 no effect, 100 complete control, approximately 10 days, preemergence
[4] = Postemergence, 125 g ai/ha, 0 no effect, 100 complete control
[5] = 125 g ai/ha, visual rating, 0 to 100 scale, 0 no effect, 100 complete control, approximately 10 days, preemergence
[6] = Postemergence, 125 g ai/ha, 0 to 100 scale, 0 no effect, 100 complete control
[7] = preemergence, 500 g ai/ha, 0 to 100 scale (0 no effect, 100 complete control)

| Structure (SMILES) | Plant response rating, Ragweed (ragweed; [3]) | Plant response rating, Ragweed (ragweed; [4]) | Ragweed plant response rating (0 to 100 scale, 0 is no effect, 100 is complete control) (ragweed; Postemergence, 500 g ai/ha) | Plant response rating, Ragweed (ragweed; preemergence, 500 g ai/ha) | Plant response rating, Foxtail, Giant (giant foxtail; [3]) | Plant response rating, Foxtail, Giant (giant foxtail; [4]) | Foxtail, Giant plant response rating (0 to 100 scale, 0 is no effect, 100 is complete control) (giant foxtail; Postemergence, 500 g ai/ha) | Plant response rating, Foxtail, Giant (giant foxtail; preemergence, 500 g ai/ha) | Plant response rating, Wheat (wheat) | Wheat plant response rating (0 to 100 scale, 0 is no effect, 100 is complete control) (wheat) | Plant response rating, Sedge, Umbrella (sedge, umbrella) | Plant response rating, Kochia (kochia; [3]) | Plant response rating, Kochia (kochia; [4]) | Kochia plant response rating (0 to 100 scale, 0 is no effect, 100 is complete control) (kochia; Postemergence, 500 g ai/ha) | Plant response rating, Kochia (kochia; preemergence, 500 g ai/ha) | Plant response rating, Blackgrass (blackgrass) | Blackgrass plant response rating (0 to 100 scale, 0 is no effect, 100 is complete control) (blackgrass) | Plant response rating, Corn (corn) | Corn plant response rating (0 to 100 scale, 0 is no effect, 100 is complete control) (corn) | Plant response rating, Galium (galium) | other results |
| --- | --- | --- | --- | --- | --- | --- | --- | --- | --- | --- | --- | --- | --- | --- | --- | --- | --- | --- | --- | --- | --- |
| Cc1cc(C2CNC(=O)C2C(=O)Nc2ccccc2Cl)ccc1F (racemic) [Compound 143] | 0 | 0 | 0 | 0 | 30 | 20 | 30 | 90 | 0 | 0 | 0 | 30 | 0 | 0 | 30 | 0 | 0 | 0 | 0 | 0 | Galium plant response rating (0 to 100 scale, 0 is no effect, 100 is complete control) (galium): 40; Plant response rating, Barnyardgrass (barnyardgrass [1]): 35; Plant response rating, Ryegrass, Italian (ryegrass, Italian; [3]): 0; Plant response rating, Ryegrass, Italian (ryegrass, Italian; [4]): 0; Ryegrass, Italian plant response rating (0 to 100 scale, 0 is no effect, 100 is complete control) (ryegrass, Italian; Postemergence, 500 g ai/ha): 0; Plant response rating, Ryegrass, Italian (ryegrass, Italian; preemergence, 500 g ai/ha): 0; Plant response rating, Barnyardgrass (barnyardgrass [2]; [5]): 60; Plant response rating, Barnyardgrass (barnyardgrass [2]; [6]): 50; Barnyardgrass plant response rating (0 to 100 scale, 0 is no effect, 100 is complete control) (barnyardgrass [2]; Postemergence, 500 g ai/ha): 90; Plant response rating, Barnyardgrass (barnyardgrass [2]; [7]): 90; Plant response rating, Ducksalad (ducksalad): 100; Plant response rating, Rice (rice): 0; Plant response rating, Pigweed (pigweed; [3]): 0; Plant response rating, Pigweed (pigweed; [4]): 0; Pigweed plant response rating (0 to 100 scale, 0 is no effect, 100 is complete control) (pigweed; Postemergence, 500 g ai/ha): 0; Plant response rating, Pigweed (pigweed; preemergence, 500 g ai/ha): 0 |
| Cc1ccc(C2CNC(=O)C2C(=O)Nc2ccccc2Cl)cc1F (racemic) [Compound 148] | 0 | 0 | 0 | 0 | 40 | 20 | 30 | 90 | 0 | 0 | 0 | 30 | 0 | 0 | 30 | 0 | 0 | 0 | 0 | 0 | Galium plant response rating (0 to 100 scale, 0 is no effect, 100 is complete control) (galium): 40; Plant response rating, Barnyardgrass (barnyardgrass [1]): 40; Plant response rating, Ryegrass, Italian (ryegrass, Italian; [3]): 0; Plant response rating, Ryegrass, Italian (ryegrass, Italian; [4]): 0; Ryegrass, Italian plant response rating (0 to 100 scale, 0 is no effect, 100 is complete control) (ryegrass, Italian; Postemergence, 500 g ai/ha): 0; Plant response rating, Ryegrass, Italian (ryegrass, Italian; preemergence, 500 g ai/ha): 0; Plant response rating, Barnyardgrass (barnyardgrass [2]; [5]): 30; Plant response rating, Barnyardgrass (barnyardgrass [2]; [6]): 50; Barnyardgrass plant response rating (0 to 100 scale, 0 is no effect, 100 is complete control) (barnyardgrass [2]; Postemergence, 500 g ai/ha): 90; Plant response rating, Barnyardgrass (barnyardgrass [2]; [7]): 90; Plant response rating, Ducksalad (ducksalad): 100; Plant response rating, Rice (rice): 0; Plant response rating, Pigweed (pigweed; [3]): 0; Plant response rating, Pigweed (pigweed; [4]): 0; Pigweed plant response rating (0 to 100 scale, 0 is no effect, 100 is complete control) (pigweed; Postemergence, 500 g ai/ha): 0; Plant response rating, Pigweed (pigweed; preemergence, 500 g ai/ha): 0 |

From patent US10294202B2, “Pyrrolidinones as herbicides” (FMC Corporation, priority 2013, dated 2019)
